Columns and labels:
Test in all cases: KinaseProfiler kinase panel
Arg(h) = Arg(h) (Homo sapiens (Human), UniProt P42684); format: biochemical
BrSK1(h) = BrSK1(h) (Homo sapiens (Human), UniProt Q8TDC3); format: biochemical
Lck(h) activated = Lck(h) activated (Homo sapiens (Human), UniProt P06239); format: biochemical
Met(h) = Met(h) (Homo sapiens (Human), UniProt P08581); format: biochemical
Rsk4(h) = Rsk4(h) (Homo sapiens (Human), UniProt Q9UK32); format: biochemical
CK1(y) = format: biochemical, yeast; details: 1 μM
MSSK1(h) = MSSK1(h) (Homo sapiens (Human), UniProt Q9UPE1); format: biochemical
Abl (M351T)(h) = Abl (M351T)(h) (Homo sapiens (Human), UniProt P00519, M351T); format: biochemical
Src(T341M)(h) = Src(T341M)(h) (Homo sapiens (Human), UniProt P12931, T341M); format: biochemical
LKB1(h) = LKB1(h) (Homo sapiens (Human), UniProt Q15831); format: biochemical
EphA3(h) = EphA3(h) (Homo sapiens (Human), UniProt P29320); format: biochemical
MST1(h) = MST1(h) (Homo sapiens (Human), UniProt Q13043); format: biochemical
ARK5(h) = ARK5(h) (Homo sapiens (Human), UniProt O60285); format: biochemical
EphB3(h) = EphB3(h) (Homo sapiens (Human), UniProt P54753); format: biochemical
Chain of EphB3(h) (P54753 34-998): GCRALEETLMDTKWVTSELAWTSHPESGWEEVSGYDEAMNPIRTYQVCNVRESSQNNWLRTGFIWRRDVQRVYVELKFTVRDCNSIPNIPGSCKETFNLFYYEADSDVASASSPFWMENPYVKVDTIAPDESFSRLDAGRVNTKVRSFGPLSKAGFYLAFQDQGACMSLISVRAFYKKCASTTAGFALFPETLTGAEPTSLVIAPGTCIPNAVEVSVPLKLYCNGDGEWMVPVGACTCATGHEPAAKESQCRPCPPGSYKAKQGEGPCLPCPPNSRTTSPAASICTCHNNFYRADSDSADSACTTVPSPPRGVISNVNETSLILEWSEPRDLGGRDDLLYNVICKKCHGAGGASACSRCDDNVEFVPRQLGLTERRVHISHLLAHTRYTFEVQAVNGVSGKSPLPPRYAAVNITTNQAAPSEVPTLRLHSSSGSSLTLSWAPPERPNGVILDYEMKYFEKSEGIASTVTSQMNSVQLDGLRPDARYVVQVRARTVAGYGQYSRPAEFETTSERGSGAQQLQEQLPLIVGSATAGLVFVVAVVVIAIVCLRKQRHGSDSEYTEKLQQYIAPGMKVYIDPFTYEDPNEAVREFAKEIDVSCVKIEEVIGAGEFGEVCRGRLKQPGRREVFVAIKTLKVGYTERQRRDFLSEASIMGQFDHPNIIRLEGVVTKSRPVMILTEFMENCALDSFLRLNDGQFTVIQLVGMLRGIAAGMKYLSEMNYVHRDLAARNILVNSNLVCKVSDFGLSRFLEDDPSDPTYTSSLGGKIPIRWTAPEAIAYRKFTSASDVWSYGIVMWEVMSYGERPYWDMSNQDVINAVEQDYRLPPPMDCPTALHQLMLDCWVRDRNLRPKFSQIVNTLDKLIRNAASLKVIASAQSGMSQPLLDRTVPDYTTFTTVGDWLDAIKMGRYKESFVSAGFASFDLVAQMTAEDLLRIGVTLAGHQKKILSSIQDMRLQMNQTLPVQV

PKG1β(h) = PKG1β(h) (Homo sapiens (Human), UniProt Q13976); format: biochemical
NEK6(h) = NEK6(h) (Homo sapiens (Human), UniProt Q9HC98); format: biochemical
Abl(Y253F)(h) = Abl(Y253F)(h) (Homo sapiens (Human), UniProt P00519, Y253F); format: biochemical
cKit(D816H)(h) = cKit(D816H)(h) (Homo sapiens (Human), UniProt P10721, D816H); format: biochemical
Chain of cKit(D816H)(h) (P10721 26-976 D816H): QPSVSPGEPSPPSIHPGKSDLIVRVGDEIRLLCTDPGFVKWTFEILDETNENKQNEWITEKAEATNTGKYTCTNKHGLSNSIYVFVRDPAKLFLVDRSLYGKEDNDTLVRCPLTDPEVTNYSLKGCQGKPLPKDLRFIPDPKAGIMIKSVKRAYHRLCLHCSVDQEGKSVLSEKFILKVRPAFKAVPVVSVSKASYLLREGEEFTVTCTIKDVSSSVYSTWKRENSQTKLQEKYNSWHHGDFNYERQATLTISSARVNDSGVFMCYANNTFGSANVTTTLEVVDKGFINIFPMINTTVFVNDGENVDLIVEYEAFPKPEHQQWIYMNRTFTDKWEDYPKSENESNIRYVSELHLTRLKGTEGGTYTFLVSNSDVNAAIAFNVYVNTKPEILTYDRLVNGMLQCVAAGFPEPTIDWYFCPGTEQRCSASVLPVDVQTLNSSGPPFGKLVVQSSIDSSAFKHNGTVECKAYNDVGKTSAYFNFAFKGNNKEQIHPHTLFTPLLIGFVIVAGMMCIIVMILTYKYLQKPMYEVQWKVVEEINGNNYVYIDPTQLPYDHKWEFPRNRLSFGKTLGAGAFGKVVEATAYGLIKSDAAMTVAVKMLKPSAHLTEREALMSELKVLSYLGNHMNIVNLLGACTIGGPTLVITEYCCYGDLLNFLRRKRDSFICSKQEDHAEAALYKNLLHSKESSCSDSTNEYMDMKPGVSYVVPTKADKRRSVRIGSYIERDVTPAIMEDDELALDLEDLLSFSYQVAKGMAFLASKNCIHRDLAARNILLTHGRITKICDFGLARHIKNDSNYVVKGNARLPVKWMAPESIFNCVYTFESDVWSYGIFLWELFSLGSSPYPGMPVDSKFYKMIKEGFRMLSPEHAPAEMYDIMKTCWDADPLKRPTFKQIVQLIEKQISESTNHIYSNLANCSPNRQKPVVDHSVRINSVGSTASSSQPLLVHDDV

Flt1(h) = Flt1(h) (Homo sapiens (Human), UniProt P17948); format: biochemical
CDK9/cyclin T1(h) = CDK9/cyclin T1(h) (Homo sapiens (Human), UniProt P50750); format: biochemical
cKit(V560G)(h) = cKit(V560G)(h) (Homo sapiens (Human), UniProt P10721, V560G); format: biochemical
Chain of cKit(V560G)(h) (P10721 26-976 V560G): as the sequence (P10721 26-976 D816H) above, with V535G, H791D counted along it

Yes(h) = Yes(h) (Homo sapiens (Human), UniProt P07947); format: biochemical
Chain of Yes(h) (P07947 whole entry): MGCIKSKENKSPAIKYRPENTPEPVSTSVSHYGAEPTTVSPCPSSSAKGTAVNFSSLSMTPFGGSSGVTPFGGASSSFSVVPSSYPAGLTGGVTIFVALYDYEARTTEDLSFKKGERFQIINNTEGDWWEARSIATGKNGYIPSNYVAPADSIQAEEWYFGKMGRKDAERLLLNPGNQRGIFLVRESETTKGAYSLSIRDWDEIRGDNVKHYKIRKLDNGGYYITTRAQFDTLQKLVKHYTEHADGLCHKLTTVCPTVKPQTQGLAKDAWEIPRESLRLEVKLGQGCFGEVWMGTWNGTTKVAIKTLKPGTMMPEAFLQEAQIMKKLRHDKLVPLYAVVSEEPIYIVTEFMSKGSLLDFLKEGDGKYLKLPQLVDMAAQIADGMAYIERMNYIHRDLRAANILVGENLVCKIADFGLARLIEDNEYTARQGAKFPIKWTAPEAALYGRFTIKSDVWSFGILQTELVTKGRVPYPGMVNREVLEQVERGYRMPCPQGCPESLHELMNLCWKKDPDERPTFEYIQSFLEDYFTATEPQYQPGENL

Bmx(h) = Bmx(h) (Homo sapiens (Human), UniProt P51813); format: biochemical
Blk(m) = Blk(m) (Mus musculus (Mouse), UniProt P16277); format: biochemical
Chain of Blk(m) (P16277 whole entry): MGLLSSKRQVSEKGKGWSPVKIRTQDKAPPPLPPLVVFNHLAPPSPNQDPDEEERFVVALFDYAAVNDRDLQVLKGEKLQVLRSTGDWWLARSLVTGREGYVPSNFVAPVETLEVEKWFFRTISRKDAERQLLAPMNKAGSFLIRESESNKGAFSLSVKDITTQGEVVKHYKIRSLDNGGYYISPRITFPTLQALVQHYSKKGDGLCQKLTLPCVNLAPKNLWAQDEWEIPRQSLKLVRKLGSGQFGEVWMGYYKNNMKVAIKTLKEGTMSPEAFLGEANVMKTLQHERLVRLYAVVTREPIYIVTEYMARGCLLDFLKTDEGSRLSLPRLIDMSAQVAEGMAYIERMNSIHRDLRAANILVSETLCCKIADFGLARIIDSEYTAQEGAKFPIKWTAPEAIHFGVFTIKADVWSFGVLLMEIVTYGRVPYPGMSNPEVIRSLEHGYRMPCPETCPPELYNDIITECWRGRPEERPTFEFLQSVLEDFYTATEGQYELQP

TRKA(h) = TRKA(h) (Homo sapiens (Human), UniProt P04629); format: biochemical
FGFR2(h) = FGFR2(h) (Homo sapiens (Human), UniProt P21802); format: biochemical
Abl (H396P) (h) = Abl (H396P) (h) (Homo sapiens (Human), UniProt P00519, H396P); format: biochemical
NEK3(h) = NEK3(h) (Homo sapiens (Human), UniProt P51956); format: biochemical
Fms(h) = Fms(h) (Homo sapiens (Human), UniProt P07333); format: biochemical
Chain of Fms(h) (P07333 20-972): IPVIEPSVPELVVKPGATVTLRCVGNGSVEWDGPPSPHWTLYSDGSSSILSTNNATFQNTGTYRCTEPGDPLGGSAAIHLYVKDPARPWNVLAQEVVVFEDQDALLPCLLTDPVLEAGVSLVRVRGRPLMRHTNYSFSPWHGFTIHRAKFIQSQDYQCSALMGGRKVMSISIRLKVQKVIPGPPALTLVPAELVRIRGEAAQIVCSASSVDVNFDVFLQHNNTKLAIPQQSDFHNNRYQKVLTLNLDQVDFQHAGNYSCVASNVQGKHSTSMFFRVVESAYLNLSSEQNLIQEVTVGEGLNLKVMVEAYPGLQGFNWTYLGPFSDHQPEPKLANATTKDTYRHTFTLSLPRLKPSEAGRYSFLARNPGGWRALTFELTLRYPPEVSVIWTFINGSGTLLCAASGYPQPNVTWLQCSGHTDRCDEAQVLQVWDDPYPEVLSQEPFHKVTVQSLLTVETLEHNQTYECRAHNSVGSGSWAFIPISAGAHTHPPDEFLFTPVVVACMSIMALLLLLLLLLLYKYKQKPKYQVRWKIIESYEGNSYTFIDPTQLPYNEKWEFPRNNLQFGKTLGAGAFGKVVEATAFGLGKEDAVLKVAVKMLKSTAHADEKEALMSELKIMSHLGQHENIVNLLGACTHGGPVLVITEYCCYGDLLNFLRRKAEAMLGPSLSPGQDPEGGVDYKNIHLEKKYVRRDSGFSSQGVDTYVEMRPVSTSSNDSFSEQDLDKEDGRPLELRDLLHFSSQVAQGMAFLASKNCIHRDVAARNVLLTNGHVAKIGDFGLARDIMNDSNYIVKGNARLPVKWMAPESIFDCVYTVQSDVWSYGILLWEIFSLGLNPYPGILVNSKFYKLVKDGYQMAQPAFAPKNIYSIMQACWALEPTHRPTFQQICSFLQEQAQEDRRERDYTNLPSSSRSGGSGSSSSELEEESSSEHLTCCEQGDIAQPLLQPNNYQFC

MARK1(h) = MARK1(h) (Homo sapiens (Human), UniProt Q9P0L2); format: biochemical
CLK3(h) = CLK3(h) (Homo sapiens (Human), UniProt P49761); format: biochemical
TSSK2(h) = TSSK2(h) (Homo sapiens (Human), UniProt Q96PF2); format: biochemical
Chain of TSSK2(h) (Q96PF2 whole entry): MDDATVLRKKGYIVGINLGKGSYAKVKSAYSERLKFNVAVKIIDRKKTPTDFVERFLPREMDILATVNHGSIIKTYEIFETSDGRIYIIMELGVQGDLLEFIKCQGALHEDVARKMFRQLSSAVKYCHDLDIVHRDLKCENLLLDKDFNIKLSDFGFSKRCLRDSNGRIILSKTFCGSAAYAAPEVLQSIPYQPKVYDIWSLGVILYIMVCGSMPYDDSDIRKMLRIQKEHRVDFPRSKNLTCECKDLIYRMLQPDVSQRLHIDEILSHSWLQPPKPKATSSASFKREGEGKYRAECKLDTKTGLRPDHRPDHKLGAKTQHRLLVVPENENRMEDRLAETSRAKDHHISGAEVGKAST

MRCKβ(h) = MRCKβ(h) (Homo sapiens (Human), UniProt Q9Y5S2); format: biochemical
Ret(V804M)(h) = Ret(V804M)(h) (Homo sapiens (Human), UniProt P07949, V804M); format: biochemical
CK2(h) = CK2(h) (Homo sapiens (Human), UniProt P68400); format: biochemical
STK33(h) = STK33(h) (Homo sapiens (Human), UniProt Q9BYT3); format: biochemical
BTK(h) = BTK(h) (Homo sapiens (Human), UniProt Q06187); format: biochemical
Flt3(h) = Flt3(h) (Homo sapiens (Human), UniProt P36888); format: biochemical
PKCγ(h) = PKCγ(h) (Homo sapiens (Human), UniProt P05129); format: biochemical
Fgr(h) = Fgr(h) (Homo sapiens (Human), UniProt P09769); format: biochemical

Chain of Lck(h) activated (P06239 whole entry): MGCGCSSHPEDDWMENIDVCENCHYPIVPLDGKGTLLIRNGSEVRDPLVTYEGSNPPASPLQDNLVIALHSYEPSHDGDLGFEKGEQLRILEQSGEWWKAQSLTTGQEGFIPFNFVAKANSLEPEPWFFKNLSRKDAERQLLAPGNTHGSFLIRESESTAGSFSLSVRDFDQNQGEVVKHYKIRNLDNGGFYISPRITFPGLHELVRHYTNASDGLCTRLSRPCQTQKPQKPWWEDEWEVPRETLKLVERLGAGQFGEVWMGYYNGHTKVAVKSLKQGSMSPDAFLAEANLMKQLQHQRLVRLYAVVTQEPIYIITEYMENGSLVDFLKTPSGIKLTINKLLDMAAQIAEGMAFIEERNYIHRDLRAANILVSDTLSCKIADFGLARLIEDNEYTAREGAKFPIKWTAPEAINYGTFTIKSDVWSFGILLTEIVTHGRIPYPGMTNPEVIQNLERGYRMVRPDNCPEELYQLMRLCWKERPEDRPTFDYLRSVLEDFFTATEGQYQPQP

CCn1c(N2CCNCC2)nc2c(Br)c(Br)c(Br)c(Br)c21 [Compound 416, 4,5,6,7-tetrabromo-1-ethyl-2-(piperazin-1-yl)-1H-benzo[d]imidazole]
remaining activity at 1 µM (Arg(h)): 119% | remaining activity at 1 µM (BrSK1(h)): 103% | remaining activity at 1 µM (Lck(h) activated): 69% | remaining activity at 1 µM (Met(h)): 81% | remaining activity at 1 µM (Rsk4(h)): 89% | % remaining activity (CK1(y)): 6% | remaining activity at 1 µM (MSSK1(h)): 87% | remaining activity at 1 µM (Abl (M351T)(h)): 95% | remaining activity at 1 µM (Src(T341M)(h)): 40% | remaining activity at 1 µM (LKB1(h)): 86% | remaining activity at 1 µM (EphA3(h)): 94% | remaining activity at 1 µM (MST1(h)): 71% | remaining activity at 1 µM (ARK5(h)): 93% | remaining activity at 1 µM (EphB3(h)): 121% | remaining activity at 1 µM (PKG1β(h)): 5% | remaining activity at 1 µM (NEK6(h)): 97% | remaining activity at 1 µM (Abl(Y253F)(h)): 92% | remaining activity at 1 µM (cKit(D816H)(h)): 6% | remaining activity at 1 µM (Flt1(h)): 40% | remaining activity at 1 µM (CDK9/cyclin T1(h)): 27% | remaining activity at 1 µM (cKit(V560G)(h)): 35% | remaining activity at 1 µM (Yes(h)): 48% | remaining activity at 1 µM (Bmx(h)): 94% | remaining activity at 1 µM (Blk(m)): 97% | remaining activity at 1 µM (TRKA(h)): 35% | remaining activity at 1 µM (FGFR2(h)): 91% | remaining activity at 1 µM (Abl (H396P) (h)): 107% | remaining activity at 1 µM (NEK3(h)): 85% | remaining activity at 1 µM (Fms(h)): 72% | remaining activity at 1 µM (MARK1(h)): 91% | remaining activity at 1 µM (CLK3(h)): 82% | remaining activity at 1 µM (TSSK2(h)): 95% | remaining activity at 1 µM (MRCKβ(h)): 113% | remaining activity at 1 µM (Ret(V804M)(h)): 20% | remaining activity at 1 µM (CK2(h)): 59% | remaining activity at 1 µM (STK33(h)): 66% | remaining activity at 1 µM (BTK(h)): 107% | remaining activity at 1 µM (Flt3(h)): 0% | remaining activity at 1 µM (PKCγ(h)): 93% | remaining activity at 1 µM (Fgr(h)): 67%
